The results in this text go back to patent US9340590B2 (priority 2011, dated 2016).

The target in the experiment is hNav1.5 (Homo sapiens, UniProt Q14524). The experiment in a line: cell-based.

Structures are written as SMILES. Where two headings read alike, the source gives them in different places. Positions of bridges follow the written chain, without caps; N, C: chain ends. Residues, ends and D or L forms follow the SMILES beside them.

Sequence of hNav1.5 (Q14524 whole entry, looked up): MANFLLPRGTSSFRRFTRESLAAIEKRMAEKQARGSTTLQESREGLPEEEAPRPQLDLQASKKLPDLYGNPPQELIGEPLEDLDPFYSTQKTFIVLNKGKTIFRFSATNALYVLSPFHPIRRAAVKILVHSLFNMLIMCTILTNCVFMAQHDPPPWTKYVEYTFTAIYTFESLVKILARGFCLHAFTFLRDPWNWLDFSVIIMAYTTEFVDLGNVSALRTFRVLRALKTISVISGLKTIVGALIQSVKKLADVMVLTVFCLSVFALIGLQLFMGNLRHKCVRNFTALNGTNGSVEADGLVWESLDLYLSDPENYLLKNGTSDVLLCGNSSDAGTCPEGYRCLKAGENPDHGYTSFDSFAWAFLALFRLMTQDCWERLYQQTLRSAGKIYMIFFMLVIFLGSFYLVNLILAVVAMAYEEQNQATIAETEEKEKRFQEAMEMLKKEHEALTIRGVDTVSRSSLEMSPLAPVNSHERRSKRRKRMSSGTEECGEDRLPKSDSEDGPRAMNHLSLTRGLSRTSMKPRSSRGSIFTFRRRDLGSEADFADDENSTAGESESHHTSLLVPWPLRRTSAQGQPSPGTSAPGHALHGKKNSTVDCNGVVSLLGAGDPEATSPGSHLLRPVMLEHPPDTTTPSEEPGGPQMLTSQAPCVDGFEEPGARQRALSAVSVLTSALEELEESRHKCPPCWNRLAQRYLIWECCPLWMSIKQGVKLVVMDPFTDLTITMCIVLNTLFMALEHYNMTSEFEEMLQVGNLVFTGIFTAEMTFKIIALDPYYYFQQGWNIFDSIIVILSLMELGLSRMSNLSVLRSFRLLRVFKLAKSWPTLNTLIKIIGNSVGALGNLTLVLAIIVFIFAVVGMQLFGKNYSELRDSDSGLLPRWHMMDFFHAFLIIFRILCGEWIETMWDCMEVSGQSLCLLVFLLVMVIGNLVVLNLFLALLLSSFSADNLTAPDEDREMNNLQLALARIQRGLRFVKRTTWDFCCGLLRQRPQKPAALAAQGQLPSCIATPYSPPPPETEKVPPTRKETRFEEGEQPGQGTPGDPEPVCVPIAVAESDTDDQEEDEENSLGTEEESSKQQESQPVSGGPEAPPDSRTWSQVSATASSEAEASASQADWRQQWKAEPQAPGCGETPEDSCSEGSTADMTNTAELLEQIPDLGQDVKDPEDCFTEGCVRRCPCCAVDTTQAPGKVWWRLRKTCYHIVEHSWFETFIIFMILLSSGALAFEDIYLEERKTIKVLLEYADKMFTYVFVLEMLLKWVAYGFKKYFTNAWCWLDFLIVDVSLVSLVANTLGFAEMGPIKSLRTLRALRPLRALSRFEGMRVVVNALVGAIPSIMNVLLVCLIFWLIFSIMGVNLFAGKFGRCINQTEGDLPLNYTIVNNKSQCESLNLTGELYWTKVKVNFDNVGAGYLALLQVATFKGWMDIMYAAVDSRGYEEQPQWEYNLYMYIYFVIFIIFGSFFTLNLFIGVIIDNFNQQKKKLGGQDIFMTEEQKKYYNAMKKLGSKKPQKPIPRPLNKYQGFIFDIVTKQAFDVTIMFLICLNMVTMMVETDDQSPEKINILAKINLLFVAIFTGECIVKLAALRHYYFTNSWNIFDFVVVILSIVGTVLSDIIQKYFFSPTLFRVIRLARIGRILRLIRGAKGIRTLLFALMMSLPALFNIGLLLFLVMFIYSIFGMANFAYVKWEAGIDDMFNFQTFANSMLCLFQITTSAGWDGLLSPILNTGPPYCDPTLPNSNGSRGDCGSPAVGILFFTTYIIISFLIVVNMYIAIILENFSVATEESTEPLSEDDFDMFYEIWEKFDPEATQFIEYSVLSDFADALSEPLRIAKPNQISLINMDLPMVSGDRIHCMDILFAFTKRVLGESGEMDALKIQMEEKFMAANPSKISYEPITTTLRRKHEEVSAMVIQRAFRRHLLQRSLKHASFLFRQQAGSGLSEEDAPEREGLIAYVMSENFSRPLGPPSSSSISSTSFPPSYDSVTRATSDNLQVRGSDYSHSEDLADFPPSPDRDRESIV

Take `CC[C@H](C)[C@@H]1NC(=O)[C@@H]2CSSC[C@@H]3NC(=O)[C@H](C(C)C)NC(=O)[C@H](CC(C)C)NC(=O)[C@H](CC(N)=O)NC(=O)[C@@H]4CCCN4C(=O)[C@H](CCCNC(=N)N)NC(=O)[C@H](CSSC[C@H](NC(=O)[C@@H](N)CC(=O)O)C(=O)N[C@@H](CC(C)C)C(=O)NCC(=O)N[C@@H](Cc4ccccc4)C(=O)N[C@@H](CCSC)C(=O)N[C@@H](CCCNC(=N)N)C(=O)N[C@@H](CCCCN)C(=O)N2)NC(=O)[C@H](CSSC[C@@H](C(=O)N[C@@H](CCCCN)C(=O)N[C@@H](Cc2ccc(O)cc2)C(=O)N[C@H](C(=O)N[C@@H](Cc2ccccc2)C(N)=O)C(C)C)NC(=O)[C@H](Cc2c[nH]c4ccccc24)NC(=O)[C@H](CCCCN)NC(=O)[C@H](Cc2c[nH]cn2)NC(=O)[C@H](Cc2c[nH]cn2)NC(=O)[C@H](CCCNC(=N)N)NC(=O)[C@H](CO)NC3=O)NC(=O)[C@H](CCCCN)NC(=O)[C@H](CC(=O)O)NC(=O)[C@H](CC(N)=O)NC(=O)[C@H](CC(=O)O)NC(=O)[C@@H]2CCCN2C1=O` [compound 337] (H-DCLGFMRKCIPDNDKCCRPNLVCSRHHKWCKYVF-NH2; disulfide 2-17, 9-23, 16-30): the IC50 (Table 22, IonWorks Quattro, use, […], read-out: IWQ Use Nav1.5) was found to be 4.52 µM.

Take `CC[C@H](C)[C@@H]1NC(=O)[C@@H]2CSSC[C@@H]3NC(=O)[C@H](C(C)C)NC(=O)[C@H](CC(C)C)NC(=O)[C@H](CC(N)=O)NC(=O)[C@@H]4CCCN4C(=O)[C@H](CCCNC(=N)N)NC(=O)[C@H](CSSC[C@H](NC(=O)[C@@H](N)CC(=O)O)C(=O)N[C@@H](CC(C)C)C(=O)NCC(=O)N[C@@H](Cc4ccccc4)C(=O)N[C@@H](CCSC)C(=O)N[C@@H](CCCNC(=N)N)C(=O)N[C@@H](CCCCN)C(=O)N2)NC(=O)[C@H](CSSC[C@@H](C(=O)N[C@@H](CCCCN)C(=O)N[C@@H](Cc2ccc(O)cc2)C(=O)N[C@H](C(=O)N[C@H](Cc2ccccc2)C(N)=O)C(C)C)NC(=O)[C@H](Cc2c[nH]c4ccccc24)NC(=O)[C@H](CCCCN)NC(=O)[C@H](Cc2c[nH]cn2)NC(=O)[C@H]([C@@H](C)O)NC(=O)[C@H](CCCNC(=N)N)NC(=O)[C@H](CO)NC3=O)NC(=O)[C@H](CCCCN)NC(=O)[C@H](CC(=O)O)NC(=O)[C@H](CC(N)=O)NC(=O)[C@H](CC(=O)O)NC(=O)[C@@H]2CCCN2C1=O` [compound 404]: the IC50 (IWQ Use Nav1.5 (μM)) worked out at 20.7 µM.

Where the note is “IWQ Use Nav1.5 (μM)”, `CC[C@@H](C)[C@H]1NC(=O)[C@H]2CSSC[C@H]3NC(=O)[C@@H](C(C)C)NC(=O)[C@@H](CC(C)C)NC(=O)[C@@H](CC(N)=O)NC(=O)[C@H]4CCCN4C(=O)[C@@H](CCCNC(=N)N)NC(=O)[C@@H](CSSC[C@@H](NC(=O)[C@H](N)CC(=O)O)C(=O)N[C@H](CC(C)C)C(=O)NCC(=O)N[C@H](Cc4ccccc4)C(=O)N[C@H](CCSC)C(=O)N[C@H](CCCNC(=N)N)C(=O)N[C@H](CCCCN)C(=O)N2)NC(=O)[C@@H](CSSC[C@H](C(=O)N[C@H](CCCCN)C(=O)N[C@H](Cc2ccc(O)cc2)C(=O)N[C@@H](C(=O)N[C@H](Cc2ccccc2)C(N)=O)C(C)C)NC(=O)[C@@H](Cc2c[nH]c4ccccc24)NC(=O)[C@@H](CCCCN)NC(=O)[C@@H](Cc2c[nH]cn2)NC(=O)[C@@H]([C@H](C)O)NC(=O)[C@@H](CCCNC(=N)N)NC(=O)[C@@H](CO)NC3=O)NC(=O)[C@@H](CCCCN)NC(=O)[C@@H](CC(=O)O)NC(=O)[C@@H](CC(N)=O)NC(=O)[C@@H](CC(=O)O)NC(=O)[C@H]2CCCN2C1=O` [compound 2] yielded an IC50 of 11.3 µM.
